Here are results for 4 molecules from patent publication US20040247700A1 (priority 2001, published 2004).

For one experiment, the target named is T1, COX-1 enzyme (ovine) (Ovis aries, UniProt P05979).
T1 construct: purchased Cayman Chemical $60100
T1 sequence (P05979 25-600): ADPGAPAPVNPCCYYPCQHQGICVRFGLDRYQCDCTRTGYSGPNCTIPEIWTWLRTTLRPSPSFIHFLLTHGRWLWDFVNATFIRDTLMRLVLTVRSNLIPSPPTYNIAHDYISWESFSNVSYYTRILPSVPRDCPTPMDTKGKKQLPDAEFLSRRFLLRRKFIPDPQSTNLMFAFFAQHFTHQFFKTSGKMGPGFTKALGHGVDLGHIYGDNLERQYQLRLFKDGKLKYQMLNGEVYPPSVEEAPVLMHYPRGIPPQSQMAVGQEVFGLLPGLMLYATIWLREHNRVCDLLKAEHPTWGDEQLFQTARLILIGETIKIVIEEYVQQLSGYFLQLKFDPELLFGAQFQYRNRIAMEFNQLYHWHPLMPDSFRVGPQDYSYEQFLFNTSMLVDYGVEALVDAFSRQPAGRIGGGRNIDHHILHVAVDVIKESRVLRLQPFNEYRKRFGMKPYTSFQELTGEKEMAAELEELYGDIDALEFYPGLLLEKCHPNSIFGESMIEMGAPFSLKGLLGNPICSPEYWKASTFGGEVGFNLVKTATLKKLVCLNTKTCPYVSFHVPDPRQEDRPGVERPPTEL
The experiment is described as follows: COX-1 enzyme inhibition (COX-1 synthesis of PGE2). The experiment is classed as biochemical.

In another experiment the target is T2, COX-2 (Mus musculus, UniProt Q05769).
T2 construct: LPS, which was used to induce the expression of COX-2 in the RAW 264.7 cells; host or cells: RAW 264.7 (murine), LPS-stimulated
T2 sequence (Q05769 18-604): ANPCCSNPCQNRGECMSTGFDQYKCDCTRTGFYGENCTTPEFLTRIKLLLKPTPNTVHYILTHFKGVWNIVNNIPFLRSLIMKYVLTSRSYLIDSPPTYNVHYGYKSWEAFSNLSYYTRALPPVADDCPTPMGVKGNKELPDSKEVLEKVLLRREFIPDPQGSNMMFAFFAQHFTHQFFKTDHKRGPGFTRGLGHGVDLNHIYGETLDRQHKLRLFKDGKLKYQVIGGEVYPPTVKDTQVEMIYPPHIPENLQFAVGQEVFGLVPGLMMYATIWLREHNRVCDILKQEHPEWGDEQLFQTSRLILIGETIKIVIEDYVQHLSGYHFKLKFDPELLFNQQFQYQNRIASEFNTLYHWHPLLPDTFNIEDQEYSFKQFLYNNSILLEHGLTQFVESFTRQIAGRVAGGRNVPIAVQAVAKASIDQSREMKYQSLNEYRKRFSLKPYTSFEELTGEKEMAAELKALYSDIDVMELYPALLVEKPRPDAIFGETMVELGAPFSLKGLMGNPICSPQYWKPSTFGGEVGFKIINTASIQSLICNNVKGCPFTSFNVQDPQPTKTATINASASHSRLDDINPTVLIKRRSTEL
The experiment is described as follows: cell-based.

For the next experiment, the system named is COX-2 over COX-1. As to conditions: reported, background; cited from earlier work.
The mark [1] stands for this setting: RAW 264.7 cell model, read-out: COX-2 IC50 (converted).
Setting [2] is: second component alone, PGE2 production by COX-2, RAW 264.7 cells, 24 h LPS, read-out: Second Component IC50 (converted).

Where “and” joins values, the source holds several entries; their conditions need not be identical. Equal values may be shown once. Read-outs that look alike come from different tables or passages of the source.

Experimental for COX-1 enzyme (ovine): General Prodecure—Oxygen-free 1.0M Tris-HCl buffer (pH 8.0) was prepared as follows: In a 1000 mL beaker, 12.11 g Trizma HCl was dissolved into 900 mL ultra-pure water. The beaker was placed on a stir plate with a stir bar. NaOH was added until the pH reached 8.0. The volume was adjusted to a final volume of 100 mL and stored in a 1000 mL storage bottle.
The Tris-HCl buffer was placed into a vacuum chamber with the top loosened and the air pump was turned on until the buffer stopped bubbling. The vacuum chamber was then turned off and the storage bottle was tightly covered. This steps was repeated each time when oxygen-free Tris-HCl buffer was used.
One mL cofactor solution was prepared by adding 1.3 mg (−) epinephrine, 0.3 mg reduced glutathione and 1.3 mg hematin to 1 mL oxygen free Tris-HCl buffer. The solutions of the test material were prepared as needed, i.e., 10 mg of aspirin was weighed and dissolved into 1 mL DMOS. Enzymes, i.e., prostaglandin E2 or prostaglandin F2alpha, were dissolved in oxygen free Tris-HCl buffer as follows, i.e., on ice, 6.5 μL of enzyme at 40,000 units/mL was taken and added to 643.5 μL of oxygen free Tris-HCl buffer. This enzyme solution is enough for 60 reactions. The COX-1 enzyme solution was prepared as follows: In a 15 mL centrifuge tube, 10 μL centrifuge tube, 10 μL COX-1 enzyme at 40,000 units/mL was added to oxygen free Tris-HCl with 50 μL of the cofactor solution per reaction. The mixture was incubated on ice for five minutes (i.e., for 60 reactions add 65 μL enzyme in oxygen free Tris-HCl buffer with 3.25 mL cofactor solution.
Sixty microliters of the enzyme solution were combined with 20 mL of the test solution in each well of a 96 well plate. […] The plates were preincubated on ice for 10 minutes. Twenty μL arachidonic acid (30 μM) was added and incubated for 15 minutes at 37° C.
The reaction was terminated by adding 10 μL 2 M HCl. The final solution was used as the supernatant for the PGE2 assay.
General Procedure—EIA Buffer was prepared by diluting the contents of the EIA Buffer Concentrate (vial #4) with 90 ml of Ultra-pure water. […]

Consider `C=C1CC[C@@H]2[C@](C)(CO)[C@H](O)CC[C@@]2(C)[C@@H]1C/C=C1/C(=O)OC[C@H]1O` [Andrographolide], for which the IC50 on COX-1 enzyme (ovine) (ovine COX-1 enzyme, read-out: COX-1 IC50 (converted)) is ~4280 µM and 4280 µM; at COX-2 (setting [1]) it was 819 µM; on COX-2 (setting [2]), 591 µM. In addition, on COX-2 (ratio COX-1 IC50 / COX-2 IC50), the “SPECIFICITY COX-1/COX-2” value amounted to 5.2.
In the case of `COc1cc(/C=C/C(=O)CC(=O)/C=C/c2ccc(O)c(OC)c2)ccc1O` [Curcumin], the IC50 on COX-1 enzyme (ovine) (COX-1 IC50, ovine COX-1 enzyme) is 34.2 µM.
Turning to `C[C@H]1[C@H](C)CC[C@]2(C(=O)O)CC[C@]3(C)C(=CC[C@@H]4[C@@]5(C)CC[C@H](O)C(C)(C)[C@@H]5CC[C@]43C)[C@H]12` [Ursolic Acid, Ursolic acid], the IC50 at COX-2 (setting [1]) is 130 µM; at COX-2 (setting [2]) it was 171 µM.
Consider `CC(=O)Oc1ccccc1C(=O)O` [aspirin], for which the COX-2 specificity with COX-2 over COX-1 was 0.6.
